From ChEMBL document CHEMBL4316626, “N-Acyl pyrazoles: Effective and tunable inhibitors of serine hydrolases” (Bioorg Med Chem, 2019)
The source made the active and inactive calls. The calls are words filed in the database; no cut-off is given here.

Legend:
[1] = target: T1, Fatty-acid amide hydrolase 1 (Mus musculus, UniProt O08914); assay: Inhibition of FP-rhodamine probe binding to FAAH in mouse brain membrane proteome preincubated for 1 hr followed by FP-rhodamine addition and measured after 30 mins by SDS-PAGE based fluorescence assay; assay type: cell membranes
T1 sequence (O08914 whole entry): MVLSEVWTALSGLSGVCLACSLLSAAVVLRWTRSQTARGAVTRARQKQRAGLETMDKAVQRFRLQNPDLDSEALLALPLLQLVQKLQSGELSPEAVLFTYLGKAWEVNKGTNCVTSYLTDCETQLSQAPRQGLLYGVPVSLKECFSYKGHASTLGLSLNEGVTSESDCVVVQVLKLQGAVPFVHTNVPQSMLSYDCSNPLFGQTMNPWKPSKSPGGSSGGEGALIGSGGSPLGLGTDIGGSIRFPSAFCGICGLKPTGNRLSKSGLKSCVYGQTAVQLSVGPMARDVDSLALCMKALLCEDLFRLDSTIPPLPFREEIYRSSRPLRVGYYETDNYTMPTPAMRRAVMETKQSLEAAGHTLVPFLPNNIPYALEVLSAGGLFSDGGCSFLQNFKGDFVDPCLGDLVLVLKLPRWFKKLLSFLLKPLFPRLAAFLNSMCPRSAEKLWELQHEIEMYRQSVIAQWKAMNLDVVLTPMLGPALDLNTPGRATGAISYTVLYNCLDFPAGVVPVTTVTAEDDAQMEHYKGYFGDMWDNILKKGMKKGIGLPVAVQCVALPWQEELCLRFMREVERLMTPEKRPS

Monoglyceride lipase = target: T2, Monoglyceride lipase (Mus musculus, UniProt O35678); assay: Inhibition of FP-rhodamine probe binding to MGLL in mouse brain membrane proteome preincubated for 1 hr followed by FP-rhodamine addition and measured after 30 mins by SDS-PAGE based fluorescence assay; assay type: cell membranes
T2 sequence (O35678 whole entry): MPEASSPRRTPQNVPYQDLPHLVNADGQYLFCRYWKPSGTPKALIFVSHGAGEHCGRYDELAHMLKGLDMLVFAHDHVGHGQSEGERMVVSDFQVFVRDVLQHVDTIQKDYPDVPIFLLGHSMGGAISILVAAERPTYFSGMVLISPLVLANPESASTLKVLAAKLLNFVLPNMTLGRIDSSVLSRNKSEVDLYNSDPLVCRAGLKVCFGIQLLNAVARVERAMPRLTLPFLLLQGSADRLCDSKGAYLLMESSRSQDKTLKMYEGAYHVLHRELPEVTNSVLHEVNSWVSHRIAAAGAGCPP

[2] = target: T3, Monoacylglycerol lipase ABHD6 (Mus musculus, UniProt Q8R2Y0); assay: Inhibition of FP-rhodamine probe binding to ABHD6 in mouse brain membrane proteome preincubated for 1 hr followed by FP-rhodamine addition and measured after 30 mins by SDS-PAGE based fluorescence assay; assay type: cell membranes
T3 sequence (Q8R2Y0 whole entry): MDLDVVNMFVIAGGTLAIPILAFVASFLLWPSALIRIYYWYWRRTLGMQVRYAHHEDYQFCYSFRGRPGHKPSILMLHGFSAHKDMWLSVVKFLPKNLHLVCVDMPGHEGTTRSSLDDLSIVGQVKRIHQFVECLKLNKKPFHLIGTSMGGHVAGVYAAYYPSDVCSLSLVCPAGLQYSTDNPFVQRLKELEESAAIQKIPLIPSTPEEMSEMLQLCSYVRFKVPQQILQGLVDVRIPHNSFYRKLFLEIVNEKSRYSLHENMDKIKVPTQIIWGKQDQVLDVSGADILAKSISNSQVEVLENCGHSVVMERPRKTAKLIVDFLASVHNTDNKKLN

[3] = target: T4, Neutral cholesterol ester hydrolase 1 (Mus musculus, UniProt Q8BLF1); assay: Inhibition of FP-rhodamine probe binding to KIAA1363 in mouse brain membrane proteome preincubated for 1 hr followed by FP-rhodamine addition and measured after 30 mins by SDS-PAGE based fluorescence assay; assay type: cell membranes
T4 sequence (Q8BLF1 whole entry): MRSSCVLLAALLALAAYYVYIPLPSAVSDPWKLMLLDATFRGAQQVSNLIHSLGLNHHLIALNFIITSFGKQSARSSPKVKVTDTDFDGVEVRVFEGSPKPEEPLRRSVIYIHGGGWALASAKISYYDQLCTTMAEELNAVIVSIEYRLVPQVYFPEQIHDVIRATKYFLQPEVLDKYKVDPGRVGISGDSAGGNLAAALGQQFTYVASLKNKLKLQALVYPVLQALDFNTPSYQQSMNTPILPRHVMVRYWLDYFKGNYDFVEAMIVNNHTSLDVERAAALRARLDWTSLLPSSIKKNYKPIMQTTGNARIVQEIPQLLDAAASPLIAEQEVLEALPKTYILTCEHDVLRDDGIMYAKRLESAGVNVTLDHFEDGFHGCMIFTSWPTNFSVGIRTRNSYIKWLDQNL

[4] = Inhibition of recombinant rat FAAH deltaTM mutant expressed in Escherichia coli using 14C-labeled oleamide as substrate preincubated for 3 hrs followed by substrate addition and measured by TLC based Dixon-plot analysis; conditions: read-out: Ki(app)
Rattus norvegicus [5] = species: Rattus norvegicus; assay: Inhibition of recombinant rat FAAH deltaTM mutant expressed in Escherichia coli at 50 nM using 14C-labeled oleamide as substrate preincubated for 3 hrs by TLC method relative to control
Rattus norvegicus [6] = species: Rattus norvegicus; assay: Irreversible inhibition of recombinant rat FAAH deltaTM mutant expressed in Escherichia coli at 50 nM using 14C-labeled oleamide as substrate preincubated for 3 hrs followed by dialysis for 18 hrs
Rattus norvegicus [7] = species: Rattus norvegicus; assay: Time-dependent irreversible inhibition of recombinant rat FAAH deltaTM mutant expressed in Escherichia coli using 14C-labeled oleamide as substrate by TLC method
Rattus norvegicus [8] = species: Rattus norvegicus; assay: Inhibition of recombinant rat FAAH deltaTM mutant expressed in Escherichia coli at 100 nM using 14C-labeled oleamide as substrate preincubated for 3 hrs by TLC method relative to control
Rattus norvegicus [9] = species: Rattus norvegicus; assay: Irreversible inhibition of recombinant rat FAAH deltaTM mutant expressed in Escherichia coli at 100 nM using 14C-labeled oleamide as substrate preincubated for 3 hrs followed by dialysis for 18 hrs

IC50 [1] [µM] | IC50 (Monoglyceride lipase) [µM] | IC50 [2] [µM] | IC50 [3] [µM] | inhibition (Rattus norvegicus [5]) [%] | inhibition (Rattus norvegicus [6]) | TDI (Rattus norvegicus [7]) | inhibition (Rattus norvegicus [8]) [%] | inhibition (Rattus norvegicus [9]) | Compound | Ki [4] [nM]
> 100 | 1.8 | > 100 | > 100 |  |  |  |  |  | O=C(N1CCN(C(c2ccc3ccccc3c2)c2ccc3ccccc3c2)CC1)n1cccn1 | 
< 0.01 | 0.12 | 0.06 | > 100 |  |  |  |  |  | N#Cc1cnn(C(=O)N2CCCCC2)c1 | 80
0.09 | 0.96 | 0.01 | > 100 | > 70 | Active |  |  |  | O=C(N1CCN(Cc2ccc3ccccc3c2)CC1)n1cccn1 | 9.8
> 1000 | > 1000 | > 1000 | > 1000 |  |  |  |  |  | Cc1cnn(C(=O)N(C)CCN(C)C(c2ccc(OCc3ccccc3)cc2)c2ccc(OCc3ccccc3)cc2)c1 | 140000
> 100 | 0.26 | > 100 | > 100 |  |  |  |  |  | Cc1cnn(C(=O)N2CCN(C(c3ccc4ccccc4c3)c3ccc4ccccc4c3)CC2)c1 | 
> 100 | > 100 |  | > 100 |  |  |  |  |  | Cc1cnn(C(=O)NCc2ccc(OC(c3ccccc3)c3ccccc3)cc2)c1 | 220000
0.65 | 0.2 | 0.01 | > 100 |  |  | Active | > 70 | Active | Cc1cnn(C(=O)N2CCN(Cc3ccc(OCc4ccccc4)cc3)CC2)c1 | 100
0.19 | 0.59 | 1.1 | > 100 |  |  |  |  |  | CN(CCN(C)C(=O)n1cc(C#N)cn1)Cc1cccc(OCc2ccccc2)c1 | 1.3
1 | 6.6 | 5 | > 100 |  |  |  |  |  | O=C(N1CCCCC1)n1cccn1 | 750
0.06 | 0.1 |  | > 100 |  |  |  |  |  | N#Cc1cnn(C(=O)NCc2ccc(OCc3ccccc3)cc2)c1 | 17
> 100 | > 100 |  | > 100 |  |  |  |  |  | N#Cc1cnn(C(=O)NCc2ccc(OC(c3ccccc3)c3ccccc3)cc2)c1 | 80000
0.51 | 0.66 | 0.53 | > 100 |  |  |  |  |  | CN(CCN(C)C(=O)n1cccn1)Cc1ccc(OCc2ccccc2)cc1 | 13
0.96 | 0.92 | 0.01 | > 100 |  |  |  | > 70 | Active | Cc1cnn(C(=O)N2CCN(Cc3ccc4ccccc4c3)CC2)c1 | 130
> 1000 | > 1000 | > 1000 | > 1000 |  |  |  |  |  | CN(CCN(C)C(c1ccc(OCc2ccccc2)cc1)c1ccc(OCc2ccccc2)cc1)C(=O)n1cccn1 | 
> 100 | > 100 |  | > 100 |  |  |  |  |  | O=C(NCc1ccc(OC(c2ccccc2)c2ccccc2)cc1)n1cccn1 | 140000
> 100 | 3.9 | > 100 | > 100 |  |  |  |  |  | O=C(N1CCN(C(c2ccc(OCc3ccccc3)cc2)c2ccc(OCc3ccccc3)cc2)CC1)n1cccn1 | 73000
0.8 | 0.9 |  | > 100 |  |  |  |  |  | O=C(NCc1ccc(OCc2ccccc2)cc1)n1cccn1 | 100
9 | 4.1 | 8.3 | > 100 |  |  |  |  |  | Cc1cnn(C(=O)N(C)CCN(C)Cc2cccc(OCc3ccccc3)c2)c1 | 35
8.7 | 1.2 | 1.2 | > 100 |  |  |  |  |  | Cc1cnn(C(=O)N(C)CCN(C)Cc2ccc(OCc3ccccc3)cc2)c1 | 70
0.06 | 0.45 | 0.22 | > 100 | > 70 | Active | Active |  |  | O=C(N1CCN(Cc2ccc(OCc3ccccc3)cc2)CC1)n1cccn1 | 10
< 0.01 | 10 | 0.085 | > 100 |  |  |  |  |  | N#Cc1cnn(C(=O)N2CCCN(Cc3ccc(OCc4ccccc4)cc3)CC2)c1 | 1.5

IC50 [1] [µM] | IC50 (Monoglyceride lipase) [µM] | IC50 [2] [µM] | IC50 [3] [µM] | inhibition (Rattus norvegicus [5]) [%] | inhibition (Rattus norvegicus [6]) | TDI (Rattus norvegicus [7]) | inhibition (Rattus norvegicus [8]) [%] | inhibition (Rattus norvegicus [9]) | Compound | Ki [4] [nM]
0.56 | 9.5 | 9.5 | > 100 |  |  |  |  |  | Cc1cnn(C(=O)N2CCCN(Cc3ccc(OCc4ccccc4)cc3)CC2)c1 | 230
3 | 4.6 | 5.5 | > 100 |  |  |  |  |  | CN(CCN(C)C(=O)n1cccn1)Cc1cccc(OCc2ccccc2)c1 | 6.6
0.45 | 10 | 0.96 | > 100 |  |  |  |  |  | O=C(N1CCCN(Cc2ccc(OCc3ccccc3)cc2)CC1)n1cccn1 | 34
 |  |  |  |  |  |  |  |  | N#Cc1cnn(C(=O)NCCCc2ccccc2)c1 | 340
 |  |  |  |  |  |  |  |  | Cc1cnn(C(=O)NCCCc2ccccc2)c1 | 3000
 |  |  |  |  |  |  |  |  | O=C(OCCCCCc1ccccc1)n1cccn1 | > 5000
 |  |  |  |  |  |  |  |  | COC(=O)c1cnn(C(=O)N2CCN(Cc3ccc4ccccc4c3)CC2)c1 | 0.36
 |  |  |  |  |  |  |  |  | N#Cc1cnn(C(=O)CCCCCc2ccccc2)c1 | > 5000
> 1000 | 32 | > 1000 | > 1000 |  |  |  |  |  | CN(CCN(C)C(c1ccc(OCc2ccccc2)cc1)c1ccc(OCc2ccccc2)cc1)C(=O)n1cc(C#N)cn1 | 
 |  |  |  |  |  |  |  |  | Cc1cnn(C(=O)N(C)CCN(C)Cc2cccc(Oc3ccccc3)c2)c1 | 20
 |  |  |  |  |  |  |  |  | Cc1cnn(C(=O)OCc2ccc(Oc3ccccc3)cc2)c1 | 580
 |  |  |  |  |  |  |  |  | Cc1cnn(C(=O)NCc2ccc3ccccc3c2)c1 | > 5000
2.2 | 9.2 | 1.1 | > 100 |  |  |  |  |  | Cc1cnn(C(=O)N2CCCCC2)c1 | > 1000
0.12 | 0.26 | 0.32 | > 100 |  |  |  |  |  | CN(CCN(C)C(=O)n1cc(C#N)cn1)Cc1ccc(OCc2ccccc2)cc1 | 3
 |  |  |  |  |  |  |  |  | N#Cc1cnn(C(=O)OCCCCc2ccccc2)c1 | 210
 |  |  |  |  |  |  |  |  | CC(C)(C)OC(=O)N1CCCN(C(=O)n2cc(C#N)cn2)CC1 | 50
 |  |  |  |  |  |  |  |  | N#Cc1cnn(C(=O)N2CCCN(Cc3ccc(Oc4ccccc4)cc3)CC2)c1 | 1
> 100 | 2.1 | > 100 | > 100 |  |  |  |  |  | Cc1cnn(C(=O)N2CCN(C(c3ccc(OCc4ccccc4)cc3)c3ccc(OCc4ccccc4)cc3)CC2)c1 | 110000
1.2 | 1 |  | > 100 |  |  |  |  |  | Cc1cnn(C(=O)NCc2ccc(OCc3ccccc3)cc2)c1 | 300
 |  |  |  |  |  |  |  |  | O=C(OCc1ccc2ccccc2c1)n1cccn1 | > 5000
